Measurements taken from article PMC12131194, “Rational design, synthesis, and evaluation of novel polypharmacological compounds targeting NaV1.5, KV1.5, and K2P channels for atrial fibrillation” (The Journal of Biological Chemistry, 2025).

Experiments:
[1] = tested on: human atrial cardiomyocytes from patients with sinus rhythm (SR); test: Patch-clamp action potential recordings, atrial cardiomyocytes of sinus rhythm patients; assay type: cell-based
Experimental: (§1) A total of 10 patients with sinus rhythm (SR) (N = 5) or atrial fibrillation (AF) (N = 5) undergoing open heart surgery for coronary artery bypass grafting, heart valve replacement or heart transplantation were included in the study (Table S7). A written informed consent was given by all patients. The study protocol involving human tissue samples was approved by the responsible Ethics Committee of the Medical Faculty of Heidelberg University (Germany; S-017/2013) and was conducted in accordance with the 1964 Declaration of Helsinki.
(§2) The right atrial human tissue samples were transported in chilled Ca^2+-free solution (100 mM NaCl, 10 mM KCl, 1.2 mM KH2PO4, 5 mM MgSO4, 50 mM taurine, 5 mM 3-(N-morpholino)propanesulfonic acid (MOPS), 30 mM 2,3-butanedione monoxime and 20 mM glucose, pH 7.0 with NaOH). After dissection into small chunks, the samples were rinsed for 5 minutes with calcium-free Tyrode's solution, which was oxygenated with 100% O2 at 37 °C. The samples were then digested with collagenase type I (288 U/ml; Worthington) and protease type XXIV (5 mg/ml; Sigma-Aldrich, Steinheim, Germany) for 10 to 15 min, followed by an increase in calcium concentration to 0.2 mM. After an additional 35 min of agitation in protease-free solution, rod-shaped single cardiomyocytes were harvested. The suspension was centrifuged, and the cells were resuspended in storage (“Kraftbrühe”, KB) medium (20 mM KCl, 10 mM KH2PO4, 25 mM glucose, 40 mM D-Mannitol, 70 mM K glutamate, 10 mM β-hydroxybutyrate, 20 mM taurine, 10 mM ethylene glycol tetraacetic acid (EGTA), and 1% albumin) until usage in patch-clamp experiments.
(§3) Patch-clamp glass pipettes were fabricated from borosilicate glass (1B120F-4; World Precision Instruments). After back-filling with patch-clamp internal solution (134 mM K gluconate, 6 mM NaCl, 1.2 mM MgCl2, 1 mM Mg-ATP, 10 mM HEPES, pH 7.2 with KOH), tip resistances ranged from 5 to 10 MΩ. All experiments were carried out at room temperature under constant superfusion with patch-clamp extracellular solution containing 137 mM NaCl, 5.4 mM KCl, 1 mM MgCl2, 2 mM CaCl2, 10 mM HEPES, 10 mM glucose (pH 7.3 with NaOH). AP-recordings were performed in current clamp mode: The holding current was adjusted such that the cell’s resting membrane potential was approximately −70 mV at baseline. APs were induced by short (5 ms) depolarizing current pulses at a rate of 0.5 Hz. Data was not adjusted for potential differences caused by liquid junctions, and no leak subtraction was performed.
(§4) Data acquisition and analysis were performed using the pCLAMP10 software (Axon Instruments) and statistical analysis was done using Prism 8 (GraphPad Software). Data is presented as the mean ± standard error of the mean (SEM). Statistical comparisons were made using Dunnett’s post hoc test. A p value of < 0.05 was considered significant.

[2] = tested on: human atrial cardiomyocytes from patients with AF; test: Patch-clamp action potential recordings, atrial cardiomyocytes of atrial fibrillation patients; assay type: cell-based
Experimental: as §1, §2, §3, §4

[3] = SR, 1, 6.25 and 12.5 μM, significant at 12.5 μM (p < 0.05)

## CCCCN(CCCC)CC(=O)Nc1ccc(OC)cc1OC [Compound 6f, 2-(dibutylamine)-N-(2,4-dimethoxiphenyl)acetamide]
[1]; SR, 6.25 μM
  Resting membrane potential (RMP): slight increase
[1]; SR, 1, 6.25 and 12.5 μM
  APD50 vs baseline: only minor effects
  APD90 vs baseline: only minor effects
[1]; [3]
  Action potential amplitude (APA) vs baseline: concentration-dependent decrease
  Maximal upstroke velocity (dV/dtmax) vs baseline: concentration-dependent decrease
[2]; AF, 6.25 μM
  APD50 vs baseline: increase in ADP50 with 6.25 μM 6f was significant
[2]; AF, 1, 6.25 and 12.5 μM
  APD50 vs baseline: concentration-dependent prolongation trend
  APD90 vs baseline: concentration-dependent prolongation trend
  Action potential amplitude (APA) vs baseline: no changes
  Maximal upstroke velocity vs baseline: no changes
  Resting membrane potential (RMP): significant concentration-dependent shift in the RMP to more negative values
